Test results from US10000765B2, “Gene encoding cytochrome P450, and use thereof” (NATIONAL INSTITUTE OF AGROBIOLOGICAL SCIENCES, priority 2011, dated 2018).

Legend:
[1] = system: Arabidopsis thaliana K32-1-1, K32-3-1 and K32-5-1; experiment: Growth test in BS-containing medium, Arabidopsis transformed with Kasalath-derived CYP72A32; format: in vivo; conditions: day 10 from onset of cultivation, compared to NT
Text: (§1) In this Example, Agrobacterium as prepared in Example 4 was used to introduce HptII::35Spro::Kasalath CYP72A31::Tnos vector plasmid (pCAMBIA1390-KasCYP72A31), HptII::35Spro::Kasalath CYP72A32::Tnos vector plasmid (pCAMBIA1390-KasCYP72A32), or HptII::35Spro::Kasalath CYP72A33::Tnos vector plasmid (pCAMBIA1390-KasCYP72A33) into Arabidopsis thaliana (ecotype: Col-0) by using a floral-dip method. The floral-dip method followed a standard method. […] K31-4-2 and K31-6-5 were selected as fixed lines derived from pCAMBIA1390-KasCYP72A31; K32-1-1, K32-3-1, and K32-5-1 were selected as fixed lines derived from pCAMBIA1390-KasCYP72A32; and K33-1-3 and K33-2-4 were selected as fixed lines derived from pCAMBIA1390-KasCYP72A33. Their seeds were seeded in a medium containing each concentration of BS, and cultivated for 10 days. FIGS. 16A and 16B illustrate the results.
Next, 15 seeds for each of non-transformed Arabidopsis thaliana (NT which is denoted by “Col-0” in FIGS. 18A-18C) and transformed plant bodies (K32-1-1 which is denoted by “K32oe-1-1” in FIGS. 18A-18C, K32-3-1 which is denoted by “K32oe-3-1” in FIGS. 18A-18C, and K32-5-1 which is denoted by “K32oe-5-” in FIGS. 18A-18C) were cultivated on a medium containing each concentration of BS. […]

[2] = system: Wild-type rice (Nipponbare); experiment: Drug sensitivity test on gellan gum medium, wild-type rice; format: in vivo, Oryza sativa; conditions: plant height compared with drug-free medium
Experimental: Next, 1.6 g of Hoagland's mix (Sigma-Aldrich Corporation) and 3 g of Gelrite (Wako Pure Chemical Industries, Ltd.) were suspended in 1 L of distilled water. Then, the mixture was dissolved and heated in a microwave. After that, the mixture was cooled to 50 to 60 degree C., and BS was added at a final concentration of 1 μM. This mixture was dispensed into 30-mL tubular bottles at 15 mL to prepare a gellan gum medium. Next, CSSL rice paddies were soaked in 0.5% sodium hypochlorite for about 20 minutes, and were then washed well with water. These paddies were soaked in distilled water, and kept at 27 degree C. for 3 to 5 days for germination. Germinating seeds were softly planted in sprout-side up on the gellan gum medium. These samples, together with a beaker filled with distilled water, were placed in a transparent case, which was then covered with a clear-plastic wrap. These samples were grown at 27 degree C. under fluorescent light illumination (14 hours of a light period and 10 hours of a dark period) for 7 to 9 days.
According to the method of Example 1, a gellan gum medium containing a test drug at a concentration of 0.01, 0.1, 1, or 10 μM was prepared. Rice seeds were sterilized, germinated, seeded in the medium, and cultivated.

[3] = system: non-transformed Arabidopsis thaliana (NT); experiment: Drug sensitivity test on drug-containing MS medium, non-transformed Arabidopsis thaliana; format: in vivo
Experimental: A bag of mixed salts for Murashige-Skoog (MS) medium (manufactured by Wako Pure Chemical Industries, Ltd.) 20 g of sucrose, 3 mg of thiamin hydrochloride, 5 mg of nicotinic acid, and 0.5 mg of pyridoxine hydrochloride were dissolved in distilled water, and filled up to 1 L with distilled water. After pH adjustment to 5.8 to 6.3 with 1 M KOH, 3 g of Gelrite was added to the solution, and dissolved using a microwave. After that, the mixture was autoclaved to prepare a sterile MS medium. A test drug was added to this sterile MS medium so as to make a final concentration of 1.3, 4.1, 12, 37, 110, or 330 nM. Arabidopsis thaliana from a sterilized seed was seeded in the drug-containing MS medium, and cultivated at 22° C. for 12 to 14 days in a continuous light period.
Note that the drugs used in this Example were bispyribac-sodium, pyrithiobac-sodium, pyriminobac, bensulfuron-methyl, penoxsulam, pyrazosulfuron-ethyl, amidosulfuron, imazosulfuron, nicosulfuron, and propyrisulfuron.

[4] = system: Arabidopsis thaliana K31-4-2 and K31-6-5; experiment: Growth test in BS-containing medium, Arabidopsis transformed with Kasalath-derived CYP72A31; format: in vivo; conditions: day 10 from onset of cultivation, compared to NT
Text: as §1
Next, 15 seeds for each of non-transformed Arabidopsis thaliana (NT, which is denoted by “Col-0” in FIGS. 17A-17C) and transformed plant bodies (K31-4-2 which is denoted by “K31oe-4-2” in FIGS. 17A-17C and K31-6-5 which is denoted by “K31oe-6-5” in FIGS. 17A-17C) were cultivated on a medium containing each concentration of BS. […]

[5] = system: Nipponbare and Kasalath calluses with GFP overexpression construct; experiment: Callus growth test on BS-containing medium, GFP overexpression construct; format: cell-based, Oryza sativa; conditions: medium containing 0.25, 0.5, or 0.75 μM BS
Text: According to Example 5, an HptII::35Spro::Kasalath CYP72A31::Tnos vector plasmid (pCAMBIA1390-KasCYP72A31, a kasCYP72A31 overexpression construct) or, as a control, an HptII::35Spro::sGFP::Tnos vector plasmid (pCAMBIA1390-sGFP, an sGFP overexpression construct) was introduced into a rice variety (cultivars: Nipponbare and Kasalath) by using an Agrobacterium method. Transformed calluses selected with 50 ppm hygromycin were isolated, and transplanted onto a bispyribac-sodium (BS)-containing medium to examine callus growth.

COc1cc(OC)nc(Oc2cccc(Oc3nc(OC)cc(OC)n3)c2C(=O)O)n1 [BS, bispyribac sodium]
BS sensitivity (germinated seeds, emerging of true leaves, fresh weight of above-ground part) [1]: BS sensitivity equivalent to NT
CK ratio (%) ([2]; drug 0.01 μM): 82%
CK ratio (%) ([2]; drug 0.1 μM): 64%
CK ratio (%) ([2]; drug 1 μM): 22%
CK ratio (%) ([2]; drug 10 μM): 3%
Rate of emerging of true leaf (%) ([3]; drug 1.3 nM, day 12 after seeding): 44%
Rate of emerging of true leaf (%) ([3]; drug 1.3 nM, day 14 after seeding): 100%
Rate of emerging of true leaf (%) ([3]; drug 4.1 nM, day 12 after seeding): 67%
Rate of emerging of true leaf (%) ([3]; drug 4.1 nM, day 14 after seeding): 100%
Rate of emerging of true leaf (%) ([3]; drug 12 nM, day 12 after seeding): 56%
Rate of emerging of true leaf (%) ([3]; drug 12 nM, day 14 after seeding): 50%
Rate of emerging of true leaf (%) ([3]; drug 37 nM, day 12 after seeding): 0%
Rate of emerging of true leaf (%) ([3]; drug 37 nM, day 14 after seeding): 0%
Rate of emerging of true leaf (%) ([3]; drug 110 nM, day 12 after seeding): 0%
Rate of emerging of true leaf (%) ([3]; drug 110 nM, day 14 after seeding): 0%
Rate of emerging of true leaf (%) ([3]; drug 330 nM, day 12 after seeding): 0%
Rate of emerging of true leaf (%) ([3]; drug 330 nM, day 14 after seeding): 0%
BS sensitivity (germinated seeds, emerging of true leaves, fresh weight of above-ground part) [4]: significantly lower BS sensitivity compared to NT
Callus growth [5]: inhibited their growth
